Data set [1] deals with T1, BsCM_2 (chorismate mutase type II N-terminal domain of DAHPS) (Bacillus subtilis, UniProt P39912). The experiment in a line: crystal structure at […] Å (citrate from crystallization buffer) and ITC. The data set is classed as binding. The arrangement: gene aroA; N-terminal chorismate mutase-like domain of DAHPS (306 bp fragment), homodimer.
The target of data set [2] is T1, BsCM_2 (chorismate mutase type II N-terminal domain of DAHPS). Description: co-crystal structure at […] Å and ITC; also competitive enzyme inhibition (Ki […], IC50 […]). The data set is classed as binding. The arrangement: gene aroA; N-terminal chorismate mutase-like domain of DAHPS (306 bp fragment), homodimer. The settings on record: read-out: Dissociation constant, K D.

For data set [3] the target is unchanged. The experiment in a line: ITC; also Michaelis-Menten kinetics (Km […]). The settings on record: read-out: Dissociation constant, K D. The data set is classed as binding. The arrangement: gene aroA; N-terminal chorismate mutase-like domain of DAHPS (306 bp fragment). In general terms: Isothermal titration calorimetry measures the heat released or taken up as one component is titrated into another.

Data set [4] deals with the molecule itself. The experiment in a line: crystal structure; BsCM_2 co-crystallised with chlorogenic acid (1.8 Å, P21, two monomers per asymmetric unit) and with citrate from the buffer (1.9 Å, P1, four monomers per asymmetric unit); sitting drop, 1 M ammonium sulphate, 0.1 M potassium sodium tartrate, 0.1 M sodium citrate pH 5.8, 20 °C; dimer interface analysed with PISA.

From article PMC5526877, “Structure of Chorismate Mutase-like Domain of DAHPS from Bacillus subtilis Complexed with Novel Inhibitor Reveals Conformational Plasticity of Active Site” (Scientific Reports, 2017) come the findings set out here.

Where a name gives a salt, the structure may show the parent alone.

For the molecule `O=C(O)CC(O)(CC(=O)O)C(=O)O` [CIT, citrate], in data set [1], the Kd came to 600 µM.

`O=C(/C=C/c1ccc(O)c(O)c1)O[C@@H]1C[C@](O)(C(=O)O)C[C@@H](O)[C@H]1O` [CGA, chlorogenic acid]: the Kd in data set [2] turned out to be 480 µM.

As to `C=C(O[C@@H]1C=C(C(=O)O)C=C[C@H]1O)C(=O)O` [chorismate], the Kd in data set [3] was 725 µM.

B1: Chorismate mutase type II-like N-terminal domain (AroQ class) of 3-deoxy-D-arabino-heptulosonate-7-phosphate synthase (DAHPS) from Bacillus subtilis (domain or fragment, Bacillus subtilis strain 3256)
chain: MSNTELELLRQKADELNLQILKLINERGNVVKEIGKAKEAQGVNRFDPVRERTMLNNIIENNDGPFENSTIQHIFKEIFKAGLELQEEDH
notes: the forward primer encodes MSNTEL from the start codon, the reverse primer encodes ...QEEDH followed by a stop codon; residues 1-88 are spoken of in the structures; strain 3256 may differ; also called BsCM_2; CM_2 domain; source: E. coli BL21 (DE3), pET28c/BsCM_2, purified (HisTrap Ni-NTA, Superdex 75 SEC)
The term stoichiometry N denotes a count of units in the complex or per binding partner. On to B1, for which the “stoichiometry N” value in data set [4] came out at 2.
